# Test results as given in US5196427A, “3-aryl-4(3H) quinazolinone CCK antagonists and pharmaceutical formulations thereof” (Eli Lilly and Company, priority 1991, dated 1993).
# Biological target: T1, Brain CCK receptor (Mus musculus, UniProt P56481)
# T1 construct: from tissue; host or cells: forebrain membranes of male CF-1 mice
# T1 sequence (P56481 1-453): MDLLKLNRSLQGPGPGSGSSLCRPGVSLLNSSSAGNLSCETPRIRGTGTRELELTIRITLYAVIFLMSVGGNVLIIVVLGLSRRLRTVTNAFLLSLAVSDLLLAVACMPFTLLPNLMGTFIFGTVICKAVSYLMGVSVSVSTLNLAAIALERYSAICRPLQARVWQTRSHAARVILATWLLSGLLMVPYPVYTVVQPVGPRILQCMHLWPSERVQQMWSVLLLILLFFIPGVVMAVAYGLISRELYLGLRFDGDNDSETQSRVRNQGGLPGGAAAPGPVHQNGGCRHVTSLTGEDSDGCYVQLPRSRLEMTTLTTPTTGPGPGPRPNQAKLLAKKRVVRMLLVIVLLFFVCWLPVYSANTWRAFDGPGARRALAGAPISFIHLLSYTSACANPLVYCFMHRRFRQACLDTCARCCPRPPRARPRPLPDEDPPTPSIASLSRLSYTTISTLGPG
# Assay: Brain CCK receptor binding (mouse brain membranes, 125I-CCK-8 sulfate)
# Settings: not given
# Description: Brain CCK receptor binding was performed using mouse brain membranes according to the method of Chang and Lotti (Proc. Natl. Acad. Sci. 83: 4923-4926, 1986). Male CF-1 mice, 23-25 g were sacrificed by cervical dislocation, the forebrain removed and placed in ice cold 50 mM Tris buffer, pH 7.4. The tissue was homogenized in 100 volumes of the Tris buffer with a Brinkman Polytron or Tekmar Tissumizer and then centrifuged at 40,000 g for 10 min. Pellets were resuspended in Tris buffer, centrifuged as above and then resuspended in 100 volumes of assay buffer, pH 6.5 (20 mM N-2-hydroxyethyl-piperazine-N'-2-ethane sulfonic acid (HEPES), 1 mM ethylene glycol bis(2-aminoethyl ether-N,N,N',N'-tetraaceticacid) (EGTA), 5 mM MgCl2, 130 mM NaCl, and 0.25 mg/ml bacitracin). The binding assay consisted of 50 μL of compound (or buffer for total binding), 50 μL of ^125 I-CCK-8 sulfate (20 pM) (Amersham IM-159), 200 μL of assay buffer and 200 μL of homogenate (80-120 μg protein). The samples were incubated at room temperature (25°) for 2 hours, and they were then filtered through GF/B glass fiber filters (soaked in wash buffer for 2 hours before use) using a 48 well Brandel cell harvester designed for receptor binding. The filters were washed twice with 3 ml of 50 mM Tris buffer, pH 7.4, containing 0.01% BSA and then counted for radioactivity in plastic tubes with a Micromedic 10/600 automatic gamma counter.
# Compounds were dissolved in dimethyl sulfoxide (DMSO) at a concentration of 10 mM and then further diluted with assay buffer. […] IC-50 values of displacement curves were determined using 7 concentrations of compound and were calculated using the ALLFIT computer program of DeLean, Munson and Rodbard (Am. J. Physiol. 235: E97-E102, 1978). Non-specific binding was determined as the displacement of the radioligand by 100 nM CCK-8 sulfate.
row,SMILES,IC50 [nM]
1,COc1ccc(-n2c(CCc3c[nH]c4ccccc34)nc3ccccc3c2=O)cc1 [Example 51],98 ± 7

# Same assay, conditions: mouse brain membranes; 1 μM
row,SMILES,inhibition at 1 µM [%]
1,"COc1cccc(-n2c(CC(c3ccccc3)c3c[nH]c4ccccc34)nc3ccccc3c2=O)c1 (centres unmarked) [Example 5, 2-[2-Phenyl-2-(3-indolyl)ethyl]-3-(3-methoxyphenyl)-4-(3H)quinazolinone]",57
2,CCCc1cc(-n2c(CCc3c[nH]c4ccc(Br)cc34)nc3ccccc3c2=O)ccc1OC [Example 43],85
3,CC(C)Oc1cccc(-n2c(CCc3c[nH]c4ccc(Br)cc34)nc3ccc(Cl)cc3c2=O)c1 [Example 66],90

# Same assay, conditions: mouse brain membranes; 10 μM; read-out: Brain % inhibition in binding assay
row,SMILES,inhibition at 10 µM [%]
1,O=c1c2ccccc2nc(CCc2c[nH]c3ccccc23)n1-c1ccccc1C(F)(F)F [Example 11],35
2,COc1cccc(-n2c(CC(Cc3ccccc3)c3c[nH]c4ccccc34)nc3ccccc3c2=O)c1 (centres unmarked) [Example 65],70

# Same assay, conditions: mouse brain membranes; Mean ± SEM, n = 3; values without SEM n = 1; read-out: Brain IC50
row,SMILES,IC50 [nM]
1,"COc1ccc2[nH]cc(CCc3nc4ccccc4c(=O)n3-c3ccccc3)c2c1 [Example 3, 2-[2-(5-methoxyindol-3-yl)-ethyl]-3-phenyl-4-(3H)quinazolinone]",410
2,O=c1c2ccccc2nc(CCc2c[nH]c3cc(Cl)ccc23)n1-c1ccccc1 [Example 7],1100
3,COc1cccc(-n2c(CCc3c[nH]c4ccc(F)cc34)nc3ccccc3c2=O)c1 [Example 18],110 ± 10
4,COc1cccc(-n2c(CCc3c[nH]c4ccc(Cl)cc34)nc3ccccc3c2=O)c1 [Example 19],47 ± 3
5,COc1cccc(-n2c(CCc3c[nH]c4ccc(C)cc34)nc3ccccc3c2=O)c1 [Example 21],55 ± 3
6,COc1cccc(-n2c(CCc3c[nH]c4ccc(OC)cc34)nc3ccccc3c2=O)c1 [Example 22],67 ± 5
7,CCOc1cccc(-n2c(CCc3c[nH]c4ccc(OC)cc34)nc3ccccc3c2=O)c1 [Example 24],33
8,CC(C)Oc1cccc(-n2c(CCc3c[nH]c4ccccc34)nc3ccccc3c2=O)c1 [Example 25],26 ± 0.3
9,CC(C)Oc1cccc(-n2c(CCc3c[nH]c4ccc(Cl)cc34)nc3ccccc3c2=O)c1 [Example 26],19 ± 5
10,COc1ccc2[nH]cc(CCc3nc4ccccc4c(=O)n3-c3cccc(OC(C)C)c3)c2c1 [Example 27],19
11,CSc1cccc(-n2c(CCc3c[nH]c4ccc(Br)cc34)nc3ccccc3c2=O)c1 [Example 32],46 ± 8
12,COc1ccc2[nH]cc(CCc3nc4ccccc4c(=O)n3-c3cccc(SC)c3)c2c1 [Example 33],34
13,O=c1c2ccccc2nc(CCc2c[nH]c3ccc(Br)cc23)n1-c1cccc(C(F)(F)F)c1 [Example 34],230 ± 30
14,O=c1c2ccccc2nc(CCc2c[nH]c3ccc(Cl)cc23)n1-c1cccc(C(F)(F)F)c1 [Example 35],230
15,Cc1ccc2[nH]cc(CCc3nc4ccccc4c(=O)n3-c3cccc(C(F)(F)F)c3)c2c1 [Example 36],190
16,COc1ccc2[nH]cc(CCc3nc4ccccc4c(=O)n3-c3cccc(C(F)(F)F)c3)c2c1 [Example 37],130
17,CN(C)c1cccc(-n2c(CCc3c[nH]c4ccc(Br)cc34)nc3ccccc3c2=O)c1 [Example 38],16 ± 1
18,CN(C)c1cccc(-n2c(CCc3c[nH]c4ccc(Cl)cc34)nc3ccccc3c2=O)c1 [Example 39],13
19,O=c1c2ccccc2nc(CCc2c[nH]c3ccc(Br)cc23)n1-c1cccc(N2CCCC2)c1 [Example 40],22 ± 3

row,SMILES,IC50 [nM]
1,COc1cc(OC)cc(-n2c(CCc3c[nH]c4ccccc34)nc3ccccc3c2=O)c1 [Example 41],1800
2,O=c1c2ccccc2nc(CCc2c[nH]c3ccccc23)n1-c1ccc2c(c1)OCO2 [Example 42],190 ± 40
3,CCOc1ccc(-n2c(CCc3c[nH]c4ccc(Br)cc34)nc3ccccc3c2=O)cc1C [Example 44],65
4,COc1ccc(-n2c(CCc3c[nH]c4ccc(Br)cc34)nc3ccccc3c2=O)cc1C [Example 45],29
5,COc1ccc(-n2c(CCc3c[nH]c4ccc(Br)cc34)nc3ccccc3c2=O)cc1OC [Example 46],130 ± 30
6,CCc1ccc(-n2c(CCc3c[nH]c4ccc(Br)cc34)nc3ccccc3c2=O)cc1 [Example 47],28 ± 4
7,CC(C)c1ccc(-n2c(CCc3c[nH]c4ccc(Br)cc34)nc3ccccc3c2=O)cc1 [Example 48],37 ± 13
8,CC(C)c1ccc(-n2c(CCc3c[nH]c4ccc(Cl)cc34)nc3ccccc3c2=O)cc1 [Example 49],38
9,CCCCc1ccc(-n2c(CCc3c[nH]c4ccc(Br)cc34)nc3ccccc3c2=O)cc1 [Example 50],930
10,CCOc1ccc(-n2c(CCc3c[nH]c4ccc(Br)cc34)nc3ccccc3c2=O)cc1 [Example 53],88 ± 10
11,CCCOc1ccc(-n2c(CCc3c[nH]c4ccc(Br)cc34)nc3ccccc3c2=O)cc1 [Example 54],1200
12,CC(C)Oc1ccc(-n2c(CCc3c[nH]c4ccc(Br)cc34)nc3ccccc3c2=O)cc1 [Example 55],110 ± 20
13,CCCCOc1ccc(-n2c(CCc3c[nH]c4ccc(Br)cc34)nc3ccccc3c2=O)cc1 [Example 56],1100
14,CN(C)c1ccc(-n2c(CCc3c[nH]c4ccc(Br)cc34)nc3ccccc3c2=O)cc1 [Example 57],33 ± 6
15,CN(C)c1ccc(-n2c(CCc3c[nH]c4ccc(Cl)cc34)nc3ccccc3c2=O)cc1 [Example 58],87
16,CCN(CC)c1ccc(-n2c(CCc3c[nH]c4ccc(Br)cc34)nc3ccccc3c2=O)cc1 [Example 59],47
17,CSc1ccc(-n2c(CCc3c[nH]c4ccc(Br)cc34)nc3ccccc3c2=O)cc1 [Example 60],37 ± 10
18,COc1cccc(-n2c(CC(C)c3c[nH]c4ccc(Br)cc34)nc3ccccc3c2=O)c1 (centres unmarked) [Example 63],100

# Same assay, conditions: read-out: Brain % inhibition in binding assay, mouse brain membranes; 10 μM
row,SMILES,inhibition at 10 µM [%]
1,"O=c1c2ccccc2nc(Cc2c[nH]c3ccccc23)n1-c1ccccc1 [Example 2, 2-(3-Indolylmethyl)-3-phenyl-4-(3H)quinazolinone]",36
2,O=c1c2ccccc2nc(CCc2c[nH]c3ccccc23)n1-c1ccccc1F [Example 8],75
3,O=c1c2ccccc2nc(CCc2c[nH]c3ccccc23)n1-c1ccccc1Cl [Example 9],44
4,COc1ccccc1-n1c(CCc2c[nH]c3ccccc23)nc2ccccc2c1=O [Example 10],74
